The source of these data is PubChem BioAssay (NCI).

Test systems include A498 renal; HCT-15 colon; HOP-62 NSCLC; HT29 colon; MDA-N; RPMI-8226 leukemia; SN12C renal; SR leukemia; UACC-62 melanoma.
Holding throughout (assay): NCI tumour cell line growth inhibition, 48 h

Structures are written as SMILES.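 Test compounds were applied to cells in 96-well plates for 48 hours at 5 doses. GI50 marks 50% less growth. TGI: total growth inhibition.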

For `C[C@@H]1CCC([C@@H](C)[C@H]2CC[C@H]3[C@@H]4CC[C@H]5C[C@@H](O)CC[C@]5(C)[C@H]4CC[C@]23C)=NC1`, the TGI is over 100 µM in the assay on A498 renal; 44.8 µM in the assay with HCT-15 colon; over 51.3 µM in the assay on HOP-62 NSCLC; over 55.4 µM in the assay with HT29 colon; over 100 µM in the assay with MDA-N; over 20.4 µM in the assay with RPMI-8226 leukemia. For the same compound, the TGI is over 100 µM in the assay on SN12C renal, over 100 µM in the assay on SR leukemia and over 70.8 µM with UACC-62 melanoma.

Turning to `COC(=O)C1=CO[C@@H](OC2OC(CO)C(O)C(O)C2O)[C@H]2[C@@H](C)[C@@H](O)[C@@H](O)[C@@H]12` (stereo partly drawn), the TGI with A498 renal, with HCT-15 colon, with HOP-62 NSCLC, in the assay with HT29 colon, in the assay with MDA-N and with RPMI-8226 leukemia was over 100 µM throughout. Further, the TGI with SN12C renal, in the assay on SR leukemia and with UACC-62 melanoma was over 100 µM in each case.

Consider `c1ccc2cc(NCNc3ccc4ccccc4c3)ccc2c1`, for which the TGI in the assay with A498 renal is 45.6 µM; in the assay on HCT-15 colon, 46.4 µM; in the assay on HOP-62 NSCLC it was 51.3 µM; in the assay with HT29 colon, 41.3 µM; with MDA-N, 18.6 µM; in the assay with RPMI-8226 leukemia, 29.1 µM. Further, the TGI in the assay with SN12C renal came to 25.8 µM; with SR leukemia, 31.4 µM; in the assay with UACC-62 melanoma it was 30.7 µM.

`N=N/C(=C\c1c(O)[nH]c2ccccc12)c1ccccc1`: the TGI in the assay on A498 renal is 91.6 µM; in the assay with HCT-15 colon, over 66.4 µM; with HOP-62 NSCLC it was 99.8 µM; with HT29 colon, 44.9 µM; in the assay with MDA-N it was 13.7 µM; with RPMI-8226 leukemia, over 100 µM. For the same compound, the values for the TGI with SN12C renal, with SR leukemia and in the assay on UACC-62 melanoma were over 94.7 µM, 97.5 µM and over 100 µM, respectively.

As for `COc1cc(-c2oc3c(OC)cc(OC)c(O)c3c(=O)c2OC)cc(OC)c1OC`, the TGI is 6.62 µM in the assay with HOP-62 NSCLC; over 100 µM in the assay on HT29 colon; over 100 µM in the assay on MDA-N; over 100 µM with RPMI-8226 leukemia; over 100 µM in the assay on SN12C renal; over 100 µM in the assay with SR leukemia. In addition, the TGI in the assay on UACC-62 melanoma is over 100 µM.

Consider `CC1=NN(c2ccc(S(=O)(=O)O)cc2)C(=O)/C1=C/c1ccc(Cl)cc1`, for which the TGI in the assay with A498 renal, with HCT-15 colon, with HOP-62 NSCLC, with HT29 colon, in the assay with MDA-N and with RPMI-8226 leukemia was over 100 µM in each case. The TGI with SN12C renal, in the assay on SR leukemia and with UACC-62 melanoma was over 100 µM throughout.

Take `CC(N)(/C=C/c1ccccc1)C(=O)O` (stereo not drawn): the TGI in the assay on A498 renal, in the assay with HCT-15 colon, in the assay on HOP-62 NSCLC, with HT29 colon, in the assay on MDA-N and with RPMI-8226 leukemia was over 100 µM throughout. Moreover, the TGI with SN12C renal, in the assay with SR leukemia and in the assay with UACC-62 melanoma was over 100 µM throughout.

With `Cc1cc(O)cc(C)c1/C=C/c1cncc(C(N)=O)c1`, the GI50 in the assay on A498 renal is 1.65 µM; in the assay on HCT-15 colon, 1.54 µM; in the assay on HOP-62 NSCLC it was 2.8 µM; in the assay on HT29 colon, 6.9 µM; with RPMI-8226 leukemia, 7.91 µM; in the assay with SN12C renal, 2.92 µM. For the same compound, the GI50 with SR leukemia was 1.06 µM; in the assay with UACC-62 melanoma, 1.36 µM. For the same compound, the TGI was 17.4 µM with A498 renal; over 25 µM in the assay on HCT-15 colon; over 25 µM with HOP-62 NSCLC; over 23.4 µM with HT29 colon; over 25 µM in the assay on RPMI-8226 leukemia; over 25 µM in the assay on SN12C renal. Moreover, the TGI in the assay with SR leukemia is over 25 µM; in the assay on UACC-62 melanoma, 23.1 µM.

With `Cn1nc(C(F)(F)F)cc1-c1c[nH]c(OCc2ccc(Cl)cc2)c(-c2ccc(Cl)c(C(F)(F)F)c2)c1=O`, the GI50 is 0.446 µM with A498 renal; 0.784 µM in the assay on HCT-15 colon; 1.3 µM in the assay with HOP-62 NSCLC; 1.51 µM with HT29 colon; 0.547 µM in the assay with RPMI-8226 leukemia; 0.755 µM with SN12C renal. Also, the GI50 in the assay with SR leukemia is 1.09 µM; in the assay with UACC-62 melanoma it was 0.516 µM. Further, the TGI in the assay on A498 renal is 1.31 µM; in the assay on HCT-15 colon, 5.07 µM; in the assay with HOP-62 NSCLC, 3.55 µM; in the assay with HT29 colon it was over 47.5 µM; in the assay on RPMI-8226 leukemia, 2.24 µM; in the assay on SN12C renal, 6.95 µM. For the same compound, the TGI in the assay with SR leukemia is over 14.3 µM; in the assay on UACC-62 melanoma, 2.29 µM.

In the case of `COc1cccc(/C=N/NC(=O)c2ccccc2N2CCCC2)c1O`, the GI50 is 4.97 µM in the assay on A498 renal; 1.76 µM with HCT-15 colon; 3.58 µM in the assay with HOP-62 NSCLC; 30.4 µM in the assay on HT29 colon; 3.74 µM in the assay on RPMI-8226 leukemia; 15.5 µM in the assay on SN12C renal. The GI50 in the assay with SR leukemia was 4.2 µM; with UACC-62 melanoma, 3.73 µM. In addition, the TGI in the assay with A498 renal, in the assay with HCT-15 colon, with HOP-62 NSCLC, with HT29 colon, with RPMI-8226 leukemia and in the assay with SN12C renal was over 100 µM throughout. The results for the TGI in the assay on SR leukemia and with UACC-62 melanoma were over 100 µM and 19.7 µM, respectively.

Consider `CCOC(=O)c1cc(C(=O)c2cc(OC)c(OC)c(OC)c2)n2c1ccc1ccccc12`, for which the GI50 in the assay on A498 renal was 0.0362 µM; in the assay with HCT-15 colon, 0.137 µM; with HOP-62 NSCLC, 0.466 µM; in the assay on HT29 colon, 0.254 µM; with RPMI-8226 leukemia, 0.378 µM; with SN12C renal, 0.814 µM. For the same compound, the values for the GI50 in the assay on SR leukemia and in the assay on UACC-62 melanoma were 0.0704 µM and 0.171 µM, respectively. The TGI in the assay on A498 renal was 0.316 µM; in the assay with HCT-15 colon, over 100 µM; with HOP-62 NSCLC, over 100 µM; with RPMI-8226 leukemia it was over 100 µM; in the assay with SN12C renal, over 100 µM; in the assay on SR leukemia, over 100 µM. The compound further yielded a TGI in the assay with UACC-62 melanoma of over 100 µM.

As for `CONC(C)=O`, the TGI in the assay with A498 renal, in the assay with HCT-15 colon, with HOP-62 NSCLC, with HT29 colon, in the assay with MDA-N and in the assay with RPMI-8226 leukemia was over 100 µM in each case. The TGI in the assay on SN12C renal, in the assay on SR leukemia and in the assay on UACC-62 melanoma was over 100 µM in each case.
